This note sets out measurements from ChEMBL document CHEMBL4312011, “Synthesis and biological evaluation of triterpenoid thiazoles derived from betulonic acid, dihydrobetulonic acid, and ursonic acid” (Eur J Med Chem, 2020).

The nature of series [1]: Microsomal stability in human liver microsomes assessed as parent compound remaining at 2 uM incubated for 60 mins by RF-MS analysis. Particulars: read-out: Stability. In kind it is ADME, Microsome.
Series [2] in a line: Microsomal stability in human liver microsomes assessed as parent compound remaining at 2 uM incubated for 30 mins by RF-MS analysis. The format is ADME, Microsome. The following applies: read-out: Stability. For orientation: Liver microsomes are vesicles of endoplasmic reticulum, rich in cytochrome P450 enzymes.
Series [3] can be described thus: Microsomal stability in human liver microsomes assessed as parent compound remaining at 2 uM incubated for 15 mins by RF-MS analysis. In kind it is ADME, Microsome. Particulars: read-out: Stability.
Series [4] can be described thus: Stability in human plasma assessed as parent compound remaining at 2 uM incubated for 60 mins by RF-MS analysis. In kind it is ADME, cell-free. The following applies: read-out: Stability.
Series [5] in a line: Stability in human plasma assessed as parent compound remaining at 2 uM incubated for 120 mins by RF-MS analysis. In kind it is ADME, cell-free. Particulars: read-out: Stability.
Series [6] in a line: Stability in human plasma assessed as parent compound remaining at 2 uM incubated for 30 mins by RF-MS analysis. Particulars: read-out: Stability. In kind it is ADME, cell-free.
The nature of series [7]: Stability in human plasma assessed as parent compound remaining at 2 uM incubated for 15 mins by RF-MS analysis. In kind it is ADME, cell-free. The following applies: read-out: Stability.
Series [8] can be described thus: Chemical stability of compound in PBS buffer assessed as parent compound remaining at 2 uM at pH 7.4 and 37 degC incubated for 120 mins by RF-MS analysis. The following applies: read-out: Stability. The format is physicochemical.
The nature of series [9]: Chemical stability of compound in PBS buffer assessed as parent compound remaining at 2 uM at pH 7.4 and 37 degC incubated for 60 mins by RF-MS analysis. In kind it is physicochemical. Particulars: read-out: Stability.
Series [10] in a line: Chemical stability of compound in PBS buffer assessed as parent compound remaining at 2 uM at pH 7.4 and 37 degC incubated for 15 mins by RF-MS analysis. The format is physicochemical. The following applies: read-out: Stability.
Series [11] in a line: Chemical stability of compound in PBS buffer assessed as parent compound remaining at 2 uM at pH 7.4 and 37 degC incubated for 30 mins by RF-MS analysis. The format is physicochemical. Particulars: read-out: Stability.
A further series concerns MRC5. As to the kind of experiment: Cytotoxicity against human MRC5 cells incubated for 72 hrs by MTS assay. The format is cell-based. The following applies: MRC5, 72 h.
The next series relates to U2OS. As to the kind of experiment: Cytotoxicity against human U2OS cells incubated for 72 hrs by MTS assay. In kind it is functional, cell-based. In general terms: Formazan colour is commonly taken as a measure of viable cells.
The subject of the next series is BJ. As to the kind of experiment: Cytotoxicity against human BJ cells incubated for 72 hrs by MTS assay. The format is cell-based.
A further series deals with A549. As to the kind of experiment: Cytotoxicity against human A549 cells incubated for 72 hrs by MTS assay. The format is functional, cell-based. The following applies: A549, 72 h.
The next series deals with K562. As to the kind of experiment: Cytotoxicity against human K562 cells incubated for 72 hrs by MTS assay. Particulars: K562, 72 h. The format is functional, cell-based.
Series [12] can be described thus: Cytotoxicity against human K562-TAX cells incubated for 72 hrs by MTS assay. In kind it is functional, cell-based.
For series [13], the system named is HCT-116. Briefly: Cytotoxicity against p53 knockout human HCT116 cells incubated for 72 hrs by MTS assay. In kind it is functional, cell-based. Particulars: HCT-116, 72 h.
Series [14] relates to HCT-116. Briefly: Cytotoxicity against human HCT116 cells incubated for 72 hrs by MTS assay. The format is functional, cell-based. Particulars: HCT-116, 72 h.
Another series deals with CCRF-CEM. Briefly: Cytotoxicity against human CCRF-CEM cells incubated for 72 hrs by MTS assay. In kind it is functional, cell-based.
Series [15] can be described thus: Cytotoxicity against human CEM-DNR-bulk cells incubated for 72 hrs by MTS assay. In kind it is functional, cell-based.

For `C[C@H]1[C@H](C)CC[C@]2(C(=O)O)CC[C@]3(C)C(=CC[C@@H]4[C@@]5(C)CC(SC#N)C(=O)C(C)(C)[C@@H]5CC[C@]43C)[C@H]12` (stereo partly drawn), the remaining at 1 h, 2 µM in series [1] is 14.9%; in series [4] it was 77.4%; in series [9] it was 37.1%. For the same compound, the results for the remaining at 0.5 h, 2 µM in [2], in series [6] and in series [11] were 54.9%, 100% and 49.3%, respectively. The figures for the remaining at 0.25 h, 2 µM in series [3], in [7] and in series [10] were 61%, 99.2% and 90.3%, respectively. Also, the remaining at 2 h, 2 µM is 36.9% in series [5] and 15.3% in series [8]. For the same compound, the half-maximal inhibitory concentration (IC50) in the series with MRC5 was 39.8 µM; with U2OS, 33.1 µM; with BJ, more than 50 µM; in the series with A549, 42.5 µM; in the series with K562, 34.7 µM; in series [12], 29 µM. Moreover, the half-inhibitory concentration (IC50) in the series with HCT-116 [13] is 32.3 µM; with HCT-116 [14], 32.1 µM; in the series on CCRF-CEM, 4.7 µM; in series [15] it was 28.2 µM.

Consider `CC(C)[C@@H]1CC[C@]2(C(=O)O)CC[C@]3(C)[C@H](CC[C@@H]4[C@@]5(C)CC(SC#N)C(=O)C(C)(C)[C@@H]5CC[C@]43C)[C@@H]12` (stereo partly drawn), for which the remaining at 1 h, 2 µM in series [1] came to 1.6%; in [4] it was 56.8%; in series [9], 90.6%. Besides, the remaining at 0.5 h, 2 µM was 35.5% in series [2], 94.6% in series [6] and 99.4% in series [11]. Further, the results for the remaining at 0.25 h, 2 µM in series [3], in [7] and in series [10] were 62.9%, 99.5% and 99.5%, respectively. The remaining at 2 h, 2 µM in series [5] was determined as 14%; in series [8] it was 69.8%. Besides, the IC50 was 4.6 µM in the series on MRC5; 15.1 µM in the series with U2OS; 5.8 µM in the series with BJ; 12.5 µM in the series with A549; 3.4 µM in the series with K562; 5.4 µM in [12]. Also, the concentration for half-maximal inhibition (IC50) in the series with HCT-116 [13] was determined as 3.4 µM; in the series with HCT-116 [14], 3.5 µM; in the series with CCRF-CEM, 0.9 µM; in [15], 14.5 µM.

For `C=C(C)[C@@H]1CC[C@]2(C(=O)O)CC[C@]3(C)[C@H](CC[C@@H]4[C@@]5(C)CC(SC#N)C(=O)C(C)(C)[C@@H]5CC[C@]43C)[C@@H]12` (stereo partly drawn), the remaining at 1 h, 2 µM in [1] worked out at 56.8%; in series [4], 35.7%; in series [9], 54.2%. Further, the remaining at 0.5 h, 2 µM in [2] was 86.4%; in [6] it was 75.9%; in series [11], 67.5%. The remaining at 0.25 h, 2 µM was found to be 90.1% in series [3], 99% in series [7] and 99.9% in series [10]. Besides, the results for the remaining at 2 h, 2 µM in [5] and in [8] were 7.6% and 69.8%, respectively. The IC50 with MRC5 was 18.7 µM; in the series on U2OS, 20.2 µM; in the series with BJ, 19.8 µM; in the series on A549 it was 21.2 µM; with K562 it was 28.5 µM; in series [12] it was 16.6 µM. Further, the half-maximal inhibitory concentration (IC50) was 11.9 µM with HCT-116 [13], 3.3 µM in the series on HCT-116 [14], 2.4 µM in the series on CCRF-CEM and 6.8 µM in [15].

Regarding `CC(C)[C@@H]1CC[C@]2(C(=O)O)CC[C@]3(C)[C@H](CC[C@@H]4[C@@]5(C)CC(Br)C(=O)C(C)(C)[C@@H]5CC[C@]43C)[C@@H]12` (stereo partly drawn), the IC50 was found to be 8 µM with MRC5; 10 µM in the series with U2OS; 21.8 µM with BJ; 15.2 µM in the series on A549; 0.7 µM in the series with K562; 5.1 µM in series [12]. The half-maximal inhibitory concentration (IC50) was found to be 5.2 µM with HCT-116 [13], 1 µM in the series with HCT-116 [14], 3.1 µM with CCRF-CEM and 15.6 µM in series [15].

`C=C(C)[C@@H]1CC[C@]2(C(=O)O)CC[C@]3(C)[C@H](CC[C@@H]4[C@@]5(C)CC(Br)C(=O)C(C)(C)[C@@H]5CC[C@]43C)[C@@H]12` (stereo partly drawn): the IC50 with MRC5 worked out at 20.4 µM; with U2OS, 23.4 µM; in the series on BJ, 33.5 µM; in the series on A549, 24 µM; in the series on K562 it was 35.5 µM; in series [12], 23.5 µM. Besides, the IC50 is 32.7 µM in the series with HCT-116 [13], 31.1 µM in the series with HCT-116 [14], 3 µM in the series on CCRF-CEM and 17.9 µM in series [15].

In general, IC50 refers to the concentration needed to halve the response being measured. The low end stands for inhibition by little substance, the high end for a need for much substance.
